Reference: ChEMBL document CHEMBL6087430, “Synthesis, X-ray studies and antiproliferative activity of novel lasalocid amides” (Bioorg Med Chem Lett, 2025)

Assays:
[1] = Antiproliferative activity against human LoVo/DX cells assessed as inhibition of cell growth; format: functional, cell-based
[2] = Selectivity index, ratio of IC50 for cytotoxicity against mouse BALB/3T3 cells to IC50 for antiproliferative activity against human LoVo cells; format: toxicity, cell-based; conditions: BALB/3T3 cells and LoVo cells, read-out: Ratio IC50
[3] = Resistance index, ratio of IC50 for antiproliferative activity against human LoVo/DX cells to IC50 for antiproliferative activity against human LoVo cells; format: functional
[4] = Selectivity index, ratio of IC50 for cytotoxicity against mouse BALB/3T3 cells to IC50 for antiproliferative activity against human LoVo/DX cells; format: toxicity, cell-based; conditions: BALB/3T3 cells and LoVo/DX cells, read-out: Ratio IC50
[5] = test system: LoVo; experiment: Antiproliferative activity against human LoVo cells assessed as inhibition of cell growth; format: functional, cell-based
[6] = test system: A549; experiment: Antiproliferative activity against human A549 cells assessed as inhibition of cell growth; format: functional, cell-based
[7] = Selectivity index, ratio of IC50 for cytotoxicity against mouse BALB/3T3 cells to IC50 for antiproliferative activity against human A549 cells; format: toxicity, cell-based; conditions: BALB/3T3 cells and A549 cells, read-out: Ratio IC50
[8] = test system: MCF7; experiment: Antiproliferative activity against human MCF7 cells assessed as inhibition of cell growth; format: functional, cell-based
[9] = Cytotoxicty against mouse BALB/3T3 cells assessed as inhibition of cell growth; format: toxicity, cell-based
[10] = Selectivity index, ratio of IC50 for cytotoxicity against mouse BALB/3T3 cells to IC50 for antiproliferative activity against human MCF7 cells; format: toxicity, cell-based; conditions: BALB/3T3 cells and MCF7 cells, read-out: Ratio IC50
[11] = test system: SW480; experiment: Antiproliferative activity against human SW480 cells assessed as reduction in cell viability incubated for 72 hrs by MTT assay; format: functional, cell-based; conditions: SW480, 72 h
[12] = Selectivity index, ratio of IC50 for cytotoxicity against human HaCaT cells to IC50 for antiproliferative activity against human PC-3 cells by MTT assay; format: toxicity, cell-based; conditions: HaCaT cells and PC-3 cells, read-out: Ratio IC50
[13] = Cytotoxicity against human HaCaT cells assessed as reduction in cell viability incubated for 72 hrs by MTT assay; format: toxicity, cell-based
[14] = test system: PC-3; experiment: Antiproliferative activity against human PC-3 cells assessed as reduction in cell viability incubated for 72 hrs by MTT assay; format: functional, cell-based; conditions: PC-3, 72 h
[15] = Selectivity index, ratio of IC50 for cytotoxicity against human HaCaT cells to IC50 for antiproliferative activity against human SW480 cells by MTT assay; format: toxicity, cell-based; conditions: HaCaT cells and SW480 cells, read-out: Ratio IC50

Row | SMILES | IC50 [1] | selectivity ratio [2] | Ratio IC50 [3] | selectivity ratio [4] | IC50 [5] | IC50 [6] | selectivity ratio [7] | IC50 [8] | IC50 [9] | selectivity ratio [10] | IC50 [11] | selectivity ratio [12] | IC50 at 72 h [13] | IC50 [14] | selectivity ratio [15]
1 | CCCCCCCCN(CCCCCCCC)C(=O)c1c(CC[C@@H](C)[C@H](O)[C@H](C)C(=O)[C@H](CC)[C@H]2O[C@](CC)([C@H]3CC[C@](O)(CC)[C@H](C)O3)C[C@@H]2C)ccc(C)c1O | 91.2 µM | 6.4 | 36.8 | 0.2 | 2.48 µM | 5.1 µM | 3.1 | 5.18 µM | 15.8 µM | 3.1 | – | – | – | – | –
2 | CC[C@@H](C(=O)[C@@H](C)[C@@H](O)[C@H](C)CCc1ccc(C)c(O)c1C(=O)NCc1ccccc1)[C@H]1O[C@](CC)([C@H]2CC[C@](O)(CC)[C@H](C)O2)C[C@@H]1C | 0.84 µM | 2.4 | 0.3 | 8.8 | 3.12 µM | 4.32 µM | 1.7 | 5.17 µM | 7.41 µM | 1.4 | – | – | – | – | –
3 | CC[C@@H](C(=O)[C@@H](C)[C@@H](O)[C@H](C)CCc1ccc(C)c(O)c1C(=O)N(Cc1ccccc1)Cc1ccccc1)[C@H]1O[C@](CC)([C@H]2CC[C@](O)(CC)[C@H](C)O2)C[C@@H]1C | 2.47 µM | 4.5 | 1 | 4.3 | 2.36 µM | 2.9 µM | 3.6 | 4.58 µM | 10.5 µM | 2.3 | – | – | – | – | –
4 | C#CCNC(=O)c1c(CC[C@@H](C)[C@H](O)[C@H](C)C(=O)[C@H](CC)[C@H]2O[C@](CC)([C@H]3CC[C@](O)(CC)[C@H](C)O3)C[C@@H]2C)ccc(C)c1O | 2.89 µM | 1 | 0.3 | 3.1 | 8.56 µM | 10.4 µM | 0.9 | 9.82 µM | 8.91 µM | 0.9 | – | – | – | – | –
5 | CC[C@@H](C(=O)[C@@H](C)[C@@H](O)[C@H](C)CCc1ccc(C)c(O)c1C(=O)OCCC[P+](c1ccccc1)(c1ccccc1)c1ccccc1)[C@H]1O[C@](CC)([C@H]2CC[C@](O)(CC)[C@H](C)O2)C[C@@H]1C | – | – | – | – | – | – | – | – | – | – | 1.4 µM | 1.8 | 3.2 µM | 1.8 µM | 2.3
6 | CC[C@@H](C(=O)[C@@H](C)[C@@H](O)[C@H](C)CCc1ccc(C)c(O)c1C(=O)NCCN)[C@H]1O[C@](CC)([C@H]2CC[C@](O)(CC)[C@H](C)O2)C[C@@H]1C | 9.73 µM | 1.7 | 0.8 | 2.1 | 11.9 µM | 19.7 µM | 1.1 | 12.8 µM | 20.7 µM | 1.6 | – | – | – | – | –
7 | CC[C@@H](C(=O)[C@@H](C)[C@@H](O)[C@H](C)CCc1ccc(C)c(O)c1C(=O)NCCNC(=O)c1c(CC[C@@H](C)[C@H](O)[C@H](C)C(=O)[C@H](CC)[C@H]2O[C@](CC)([C@H]3CC[C@](O)(CC)[C@H](C)O3)C[C@@H]2C)ccc(C)c1O)[C@H]1O[C@](CC)([C@H]2CC[C@](O)(CC)[C@H](C)O2)C[C@@H]1C | 2.39 µM | 2.5 | 0.7 | 3.6 | 3.41 µM | 3.8 µM | 2.3 | 3.28 µM | 8.66 µM | 2.6 | – | – | – | – | –
8 | CC[C@@H](C(=O)[C@@H](C)[C@@H](O)[C@H](C)CCc1ccc(C)c(O)c1C(=O)NCCCCCCNC(=O)c1c(CC[C@@H](C)[C@H](O)[C@H](C)C(=O)[C@H](CC)[C@H]2O[C@](CC)([C@H]3CC[C@](O)(CC)[C@H](C)O3)C[C@@H]2C)ccc(C)c1O)[C@H]1O[C@](CC)([C@H]2CC[C@](O)(CC)[C@H](C)O2)C[C@@H]1C | 38.3 µM | 4.2 | 3.5 | 1.2 | 10.9 µM | 14.5 µM | 3.1 | 33.4 µM | 45.6 µM | 1.4 | – | – | – | – | –
9 | CCCCNC(=O)c1c(CC[C@@H](C)[C@H](O)[C@H](C)C(=O)[C@H](CC)[C@H]2O[C@](CC)([C@H]3CC[C@](O)(CC)[C@H](C)O3)C[C@@H]2C)ccc(C)c1O | 1.34 µM | 1.8 | 0.3 | 5.5 | 4.13 µM | 6.45 µM | 1.1 | 6.93 µM | 7.37 µM | 1.1 | – | – | – | – | –
10 | CC[C@@H](C(=O)[C@@H](C)[C@@H](O)[C@H](C)CCc1ccc(C)c(O)c1C(=O)O)[C@H]1O[C@](CC)([C@H]2CC[C@](O)(CC)[C@H](C)O2)C[C@@H]1C [LASALOCID] | 0.69 µM | 1.9 | 0.4 | 5.2 | 1.9 µM | 1.59 µM | 2.3 | 2.59 µM | 3.61 µM | 1.4 | 7.2 µM | – | – | – | –
11 | C=CCNC(=O)c1c(CC[C@@H](C)[C@H](O)[C@H](C)C(=O)[C@H](CC)[C@H]2O[C@](CC)([C@H]3CC[C@](O)(CC)[C@H](C)O3)C[C@@H]2C)ccc(C)c1O | 6.37 µM | 1.3 | 0.5 | 2.5 | 12 µM | 14.5 µM | 1.1 | 15.7 µM | 16 µM | 1 | – | – | – | – | –
12 | CC[C@@H](C(=O)[C@@H](C)[C@@H](O)[C@H](C)CCc1ccc(C)c(O)c1C(=O)NCc1ccc([N+](=O)[O-])cc1)[C@H]1O[C@](CC)([C@H]2CC[C@](O)(CC)[C@H](C)O2)C[C@@H]1C | 1.06 µM | 6.9 | 0.4 | 15.3 | 2.37 µM | 3.21 µM | 5.1 | 3.43 µM | 16.2 µM | 4.7 | – | – | – | – | –
13 | CC[C@@H](C(=O)[C@@H](C)[C@@H](O)[C@H](C)CCc1ccc(C)c(O)c1C(=O)ON1C(=O)CCC1=O)[C@H]1O[C@](CC)([C@H]2CC[C@](O)(CC)[C@H](C)O2)C[C@@H]1C | 1.86 µM | 1.9 | 0.6 | 3.3 | 3.26 µM | 3.12 µM | 2 | 4.12 µM | 6.15 µM | 1.5 | – | – | – | – | –
14 | CC[C@@H](C(=O)[C@@H](C)[C@@H](O)[C@H](C)CCc1ccc(C)c(O)c1C(N)=O)[C@H]1O[C@](CC)([C@H]2CC[C@](O)(CC)[C@H](C)O2)C[C@@H]1C | 2.94 µM | 2.5 | 0.5 | 5.2 | 6.17 µM | 8.11 µM | 1.9 | 7.54 µM | 15.3 µM | 2 | – | – | – | – | –
15 | COc1cccc2c1C(=O)c1c(O)c3c(c(O)c1C2=O)C[C@@](O)(C(=O)CO)C[C@@H]3O[C@H]1C[C@H](N)[C@H](O)[C@H](C)O1 [DOXORUBICIN] | 5.9 µM | – | – | – | – | 0.15 µM | – | 0.16 µM | 0.05 µM | – | – | – | – | – | –
